Test results as given in PMC8018465, “Antimicrobial activities of a small molecule compound II-6s against oral streptococci” (Journal of Oral Microbiology, 2021).

Legend:
[1] = system: S. mutans/S. gordonii/S. sanguinis 3-species biofilms; experiment: 3-species biofilm imaging (EPS, dead/live, FISH) and quantitative PCR; assay type: cell-based
Experimental: To form 3-species biofilms, bacterial suspensions were mixed to obtain an inoculum consisting of S. mutans, S. gordonii, and S. sanguinis (1 × 10^5 CFU/ml for each strain, inoculum ratio = 1:1:1) in BHIS broth as described previously. The inoculum (250 μl) was added into the chemotaxis chamber (μ-slide 8well, 80,826; Ibidi) and incubated for 24 h. After the multispecies biofilms were formed, they were treated with different concentrations of II-6s, CHX and PBS for 5 days (5 min, three times per day).
For EPS staining, 2.5 μM Alexa Fluor 647-labeled dextran conjugate (Molecular Probes) was added to the culture medium from the beginning of the biofilm formation, and the bacteria were stained with 2.5 μM SYTO 9 (Molecular Probes, Invitrogen) for 15 min after biofilms formed. The biofilms were imaged with a DMIRE2 confocal laser scanning microscope (Leica, Wetzlar, Germany) equipped with a 60 × oil immersion lens.
For dead/live imaging, multispecies biofilms were stained with the Live/Dead BacLight Bacterial Viability Kit (Molecular Probes, Invitrogen), and the reagents were applied to the biofilms at final concentrations of 2.5 μM SYTO 9 and 2.5 μM propidium iodide for 15 min. Live/Dead staining is a measure of membrane damage since SYTO 9 penetrates intact cytoplasmic membranes, while propidium iodide is only able to penetrate damaged membranes. The dyed biofilms were imaged with a Leica DMIRE2 confocal laser scanning microscope as in EPS staining.
For fluorescent in situ hybridization imaging, biofilms were fixed in 4% paraformaldehyde overnight and investigated by species-specific probes (Table S1) as described previously [[30–32]]. In brief, prehybridization (15 min, 46°C) was performed in 250 μl hybridization buffer with 20% formamide in the absence of any oligonucleotide probes. The incubation time for the hybridization was almost 90 min at 46°C in the dark. After the incubation, biofilms were transferred into washing buffer preheated to 48°C and incubated for 15 min at this temperature. After staining, the biofilms were imaged with a Leica DMIRE2 confocal laser scanning microscope as in EPS staining.
Each biofilm was scanned at five randomly selected positions and the experiments were performed in triplicates on three independent occasions. All three-dimensional reconstructions of the biofilms were processed with Imaris, version 7.2.3 (Bitplane, Zürich, Switzerland), and the quantification of fluorescence levels was performed with ImageJ (with the plugin COMSTAT) (National Institutes of Health, Bethesda, MD).
Total DNA of biofilms was isolated and purified using a TIANamp Bacteria DNA kit (Tiangen, Beijing, China). The bacteria were lysed using enzymatic lysis buffer (20 mM Tris-HCl, pH 8.0, 2 mM sodium EDTA, and 1.2% Triton X-100) containing 25 mg/ml of lysozyme at 37°C for 1.5 h. The purity and concentration of DNA were determined by a NanoDrop 2000 spectrophotometer (Thermo Scientific, Waltham, MA, USA). The extracts were placed at −20°C before use. TaqMan real-time PCR (Life Technologies, Carlsbad, CA, USA) was applied to quantify the absolute number of S. mutans, S. gordonii and S. sanguinis as described by the manufacturer (TaKaRa, Dalian, China). The sequences of primers (Table S2) were in accordance with previous studies. The standard curves of these bacteria were plotted using cycle values of DNA, which stands for corresponding concentrations of bacteria from 1 × 10^8 CFU/ml to 1 × 10^4 CFU/ml (Figure S1). The number of each strain within 3-species biofilms was calculated based on standard curves. The experiment was conducted in triplicates and repeated three times.

[2] = system: 3-species streptococcal biofilms on bovine enamel slabs; experiment: Transverse microradiography of biofilm-induced demineralization on bovine enamel slabs; assay type: cell-based; conditions: for biofilm-induced demineralization of enamel slabs (lesion depth, mineral loss): vs PBS control, 5 days, 5 min three times per day
Text: The labial dental crown of bovine incisors was cut into 5 mm × 5 mm × 4 mm by a diamond-coated band saw with continuous water cooling (Struers Minitom; Struers, Copenhagen, Denmark). These bovine specimens were embedded in polymethylmethacrylate and labial enamel surfaces were ground flat with water-cooled carborundum discs of waterproof silicon carbide paper (Struers) of various grits (1,000, 1,200, 2,400, 3,000 and 4,000). Then, enamel blocks were painted with two layers of acid-resistant nail varnish, leaving a 4 × 4 mm window exposed on the labial enamel surface. These specimens were measured by the […] hardness test (Zwick, Ulm, Germany) and those in the range from 314.6 to 382.4 Knoop Hardness Numbers were selected for the demineralization assessment. All the polished samples were sonicated in distilled water for 5 min to remove the residual abrasives and sterilized in an ethylene oxide sterilizer (AnproleneAN 74i, Andersen, Haw River, NC, USA).
An amount of 2 ml bacterial suspension solution contained S. mutans, S. gordonii and S. sanguinis (1 × 10^7 CFU/ml for each bacterium) was added to each well of a 12-well plate with a bovine sample, which was cultured anaerobically in a BHIS medium at 37°C (5% CO2) for 24 h. The specimens were treated with PBS, 0.2% of CHX or different concentrations of II-6s (15.63 to 125 μg/ml) for 5 days (5 min, three times per day). The pH of all experimental solutions was adjusted to 7.0 before treatment. All specimens were washed with PBS and refreshed with BHIS after every exposure. After 5 days of incubation, samples were rinsed with distilled water to remove the remaining biofilms, then cut again and polished with waterproof silicon carbide abrasive papers (800–4,000 grit; Struers, Copenhagen, Denmark) to a thickness around 100 μm. […] Quantitative data of mineral loss and lesion depth were acquired by a calibrated analysis system TMR2006 (Inspektor Research Systems BV, Netherlands). […]

[3] = 5 days, 5 min three times per day

| SMILES | EPS/bacteria ratio of the biofilms [1, 3] | biofilm-induced demineralization of enamel slabs (lesion depth, mineral loss) [2] | microbial composition within 3-species biofilms (FISH, quantitative PCR) [1, 3] | dead/live bacteria ratio of biofilm ([1]; II-6s 125 μg/ml, vs 0.2% of CHX) | dead/live bacteria ratio of biofilms ([1]; II-6s 31.25 to 125 μg/ml, vs non-treated control) | reduction of bacterial biomass and EPS production ([1]; II-6s 31.25 to 125 μg/ml, 5 days, 5 min three times per day) | inhibitory effect on biofilm-induced demineralization ([2]; II-6s 31.25 to 125 μg/ml, vs 0.2% of CHX) |
| --- | --- | --- | --- | --- | --- | --- | --- |
| [H]/N=C(\N/C(=N/[H])NCCCCCCNC(=N)NC(=N)Nc1ccc(Cl)cc1)Nc1ccc(Cl)cc1 [CHX, Chlorhexidine digluconate, reference compound] | neither II-6s nor CHX treatment altered the EPS/bacteria ratio | significantly reduced the demineralization |  |  |  |  |  |
| CC(C)(Cc1ccc2ccccc2c1)NC[C@H](O)CNc1cc(C(F)(F)F)cc(C(F)(F)F)c1 [II-6s, (S)-1-((3,5-bis(trifluoromethyl)phenyl)amino)-3-((2-methyl-1-(naphthalen-2-yl)propan-2-yl)amino)propan-2-ol] | neither II-6s nor CHX treatment altered the EPS/bacteria ratio | significantly reduced the demineralization | effectively reduced the total biomass of streptococci but did not specifically reduce the cariogenic S. mutans | even higher than that treated with 0.2% of CHX | significantly higher than that of the non-treated control | equivalent ability to reduce bacterial biomass and EPS production as compared to 0.2% of CHX | equivalent inhibitory effect on the biofilm-induced demineralization as compared to 0.2% of CHX |
